Laboratory results taken from US8513238B2 (Hoffmann-La Roche Inc., priority 2010, dated 2013).
Counter-ions that a name gives are not always drawn.

Biological target: T1, human V1a receptor (Homo sapiens, UniProt P37288)
T1 construct: expressed in transfected cells; host or cells: HEK293 cells, transiently transfected; membranes prepared
Experiment: human V1a receptor binding (3H-Vasopressin SPA, HEK293 membranes)
Conditions: membranes of HEK293 cells transiently transfected with human V1a receptor, Ki by Cheng-Prussoff, read-out: pKi (hV1a) (converted)
How it was run: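 HEK293 membranes transiently expressing cloned human V1a receptor, bound to yttrium silicate SPA beads in Tris/NaCl/KCl/CaCl2/MgCl2 buffer. Test compounds in 2% DMSO competed with 3H-vasopressin (4 nM solution added) for 1 h at room temperature; non-specific binding defined with cold vasopressin. IC50 from non-linear fit, Ki via Cheng-Prusoff.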

T1 sequence (P37288 whole entry): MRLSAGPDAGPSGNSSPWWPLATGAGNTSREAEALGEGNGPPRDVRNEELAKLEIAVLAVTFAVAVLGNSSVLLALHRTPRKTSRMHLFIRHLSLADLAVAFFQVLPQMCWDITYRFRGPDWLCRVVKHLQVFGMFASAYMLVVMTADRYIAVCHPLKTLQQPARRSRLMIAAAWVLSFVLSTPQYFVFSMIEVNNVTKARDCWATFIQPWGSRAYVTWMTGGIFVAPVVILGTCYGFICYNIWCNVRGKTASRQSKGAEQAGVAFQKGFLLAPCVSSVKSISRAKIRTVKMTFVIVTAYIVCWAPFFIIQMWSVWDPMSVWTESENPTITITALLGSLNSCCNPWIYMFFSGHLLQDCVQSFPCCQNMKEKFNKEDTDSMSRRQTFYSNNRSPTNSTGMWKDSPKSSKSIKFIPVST

Compared with `Cc1nc([C@H]2CC[C@H](c3nnc4n3-c3ccc(Cl)cc3CN(S(C)(=O)=O)C4)CC2)no1` [Example 81, trans-8-Chloro-5-methanesulfonyl-1-[4-(5-methyl-[1,2,4]oxadiazol-3-yl)-cyclohexyl]-5,6-dihydro-4H-2,3,5,10b-tetraaza-benzo[e]azulene], `Cc1nc([C@H]2CC[C@@H](c3nnc4n3-c3ccc(Cl)cc3CN(C)C4)CC2)no1` [Example 84, cis-8-Chloro-5-methyl-1-[4-(5-methyl-[1,2,4]oxadiazol-3-yl)-cyclohexyl]-5,6-dihydro-4H-2,3,5,10b-tetraaza-benzo[e]azulene] is 32-fold higher in Ki: 4.27 nM for the first, 135 nM for the second.

First: Cc1nc([C@H]2CC[C@@H](c3nnc4n3-c3ccc(Cl)cc3CN(C(=O)OC(C)(C)C)C4)CC2)no1 [Example 82, cis-8-Chloro-1-[4-(5-methyl-[1,2,4]oxadiazol-3-yl)-cyclohexyl]-4H,6H-2,3,5,10b-tetraaza-benzo[e]azulene-5-carboxylic acid tert-butyl ester]
Second: CCc1nc([C@H]2CC[C@@H](c3nnc4n3-c3ccc(Cl)cc3CN(C(=O)OC(C)(C)C)C4)CC2)no1 [Example 85, cis-8-Chloro-1-[4-(5-ethyl-[1,2,4]oxadiazol-3-yl)-cyclohexyl]-4H,6H-2,3,5,10b-tetraaza-benzo[e]azulene-5-carboxylic acid tert-butyl ester]
The Ki of the first is 2.8-fold lower: 14.8 nM for the first, 40.7 nM for the second.

Going from `Cc1nc([C@H]2CC[C@@H](c3nnc4n3-c3ccc(Cl)cc3CNC4)CC2)no1` [Example 83, cis-8-Chloro-1-[4-(5-methyl-[1,2,4]oxadiazol-3-yl)-cyclohexyl]-5,6-dihydro-4H-2,3,5,10b-tetraaza-benzo[e]azulene hydrochloride] to `CCc1nc([C@H]2CC[C@H](c3nnc4n3-c3ccc(Cl)cc3CNC4)CC2)no1` [Example 87, trans-8-Chloro-1-[4-(5-ethyl-[1,2,4]oxadiazol-3-yl)-cyclohexyl]-5,6-dihydro-4H-2,3,5,10b-tetraaza-benzo[e]azulene hydrochloride], the Ki falls from 617 nM to 145 nM (4.3-fold).

Going from `CCc1nc([C@H]2CC[C@H](c3nnc4n3-c3ccc(Cl)cc3CN(C(=O)OC(C)(C)C)C4)CC2)no1` [Example 86, trans-8-Chloro-1-[4-(5-ethyl-[1,2,4]oxadiazol-3-yl)-cyclohexyl]-4H,6H-2,3,5,10b-tetraaza-benzo[e]azulene-5-carboxylic acid tert-butyl ester] to `CC(C)c1nc([C@H]2CC[C@@H](c3nnc4n3-c3ccc(Cl)cc3CN(C(=O)OC(C)(C)C)C4)CC2)no1` [Example 91, cis-8-Chloro-1-[4-(5-isopropyl-[1,2,4]oxadiazol-3-yl)-cyclohexyl]-4H,6H-2,3,5,10b-tetraaza-benzo[e]azulene-5-carboxylic acid tert-butyl ester], the Ki rises from 3.09 nM to 34.7 nM (11-fold).

First: CCc1nc([C@H]2CC[C@H](c3nnc4n3-c3ccc(Cl)cc3CN(C)C4)CC2)no1 [Example 88]
Second: CCc1nc([C@H]2CC[C@@H](c3nnc4n3-c3ccc(Cl)cc3CN(C)C4)CC2)no1 [Example 90]
The Ki of the first is 20-fold lower: 14.5 nM for the first, 295 nM for the second.

Going from `CCc1nc([C@H]2CC[C@@H](c3nnc4n3-c3ccc(Cl)cc3CNC4)CC2)no1` [Example 89, cis-8-Chloro-1-[4-(5-ethyl-[1,2,4]oxadiazol-3-yl)-cyclohexyl]-5,6-dihydro-4H-2,3,5,10b-tetraaza-benzo[e]azulene hydrochloride] to `CC(C)c1nc([C@H]2CC[C@H](c3nnc4n3-c3ccc(Cl)cc3CNC4)CC2)no1` [Example 93, trans-8-Chloro-1-[4-(5-isopropyl-[1,2,4]oxadiazol-3-yl)-cyclohexyl]-5,6-dihydro-4H-2,3,5,10b-tetraaza-benzo[e]azulene hydrochloride], the Ki falls from 2750 nM to 263 nM (10-fold).

First: CC(C)c1nc([C@H]2CC[C@H](c3nnc4n3-c3ccc(Cl)cc3CN(C(=O)OC(C)(C)C)C4)CC2)no1 [Example 92, trans-8-Chloro-1-[4-(5-isopropyl-[1,2,4]oxadiazol-3-yl)-cyclohexyl]-4H,6H-2,3,5,10b-tetraaza-benzo[e]azulene-5-carboxylic acid tert-butyl ester]
Second: CC(C)c1nc([C@H]2CC[C@H](c3nnc4n3-c3ccc(Cl)cc3CN(C)C4)CC2)no1 [Example 94]
The Ki of the first is 6.3-fold lower: 3.09 nM for the first, 19.5 nM for the second.

First: CC(C)c1nc([C@H]2CC[C@@H](c3nnc4n3-c3ccc(Cl)cc3CNC4)CC2)no1 [Example 95, cis-8-Chloro-1-[4-(5-isopropyl-[1,2,4]oxadiazol-3-yl)-cyclohexyl]-5,6-dihydro-4H-2,3,5,10b-tetraaza-benzo[e]azulene hydrochloride]
Second: CC(C)c1nc([C@H]2CC[C@@H](c3nnc4n3-c3ccc(Cl)cc3CN(C)C4)CC2)no1 [Example 96]
The Ki of the first is 14-fold higher: 2950 nM for the first, 204 nM for the second.

`Cc1nc([C@H]2CC[C@H](c3nnc4n3-c3ccc(Cl)cc3CN(C(=O)OC(C)(C)C)C4)CC2)oc1Cl` [Example 98, trans-8-Chloro-1-[4-(5-chloro-4-methyl-oxazol-2-yl)-cyclohexyl]-4H,6H-2,3,5,10b-tetraaza-benzo[e]azulene-5-carboxylic acid tert-butyl ester] and `Cc1nc([C@H]2CC[C@H](c3nnc4n3-c3ccc(Cl)cc3CN(C(=O)OC(C)(C)C)C4)CC2)sc1Cl` [Example 101, trans-8-Chloro-1-[4-(5-chloro-4-methyl-thiazol-2-yl)-cyclohexyl]-4H,6H-2,3,5,10b-tetraaza-benzo[e]azulene-5-carboxylic acid tert-butyl ester] are within 1.5-fold of each other in Ki: 1.1 nM for the first, 1.29 nM for the second.

First: Cc1nc([C@H]2CC[C@H](c3nnc4n3-c3ccc(Cl)cc3CNC4)CC2)oc1Cl [Example 99, trans-8-Chloro-1-[4-(5-chloro-4-methyl-oxazol-2-yl)-cyclohexyl]-5,6-dihydro-4H-2,3,5,10b-tetraaza-benzo[e]azulene]
Second: Cc1nc([C@H]2CC[C@H](c3nnc4n3-c3ccc(Cl)cc3CN(C)C4)CC2)oc1Cl [Example 100, trans-8-Chloro-1-[4-(5-chloro-4-methyl-oxazol-2-yl)-cyclohexyl]-5-methyl-5,6-dihydro-4H-2,3,5,10b-tetraaza-benzo[e]azulene]
The Ki of the first is 4.9-fold higher: 5.37 nM for the first, 1.1 nM for the second.

Compared with `Cc1nc([C@H]2CC[C@H](c3nnc4n3-c3ccc(Cl)cc3CNC4)CC2)sc1Cl` [Example 102, trans-8-Chloro-1-[4-(5-chloro-4-methyl-thiazol-2-yl)-cyclohexyl]-5,6-dihydro-4H-2,3,5,10b-tetraaza-benzo[e]azulene], `Cc1nc([C@H]2CC[C@H](c3nnc4n3-c3ccc(Cl)cc3CNC4)CC2)sc1C` [Example 105, trans-8-Chloro-1-[4-(4,5-dimethyl-thiazol-2-yl)-cyclohexyl]-5,6-dihydro-4H-2,3,5,10b-tetraaza-benzo[e]azulene] is 5.8-fold higher in Ki: 3.8 nM for the first, 21.9 nM for the second.

`Cc1nc([C@H]2CC[C@H](c3nnc4n3-c3ccc(Cl)cc3CN(C)C4)CC2)sc1Cl` [Example 103, trans-8-Chloro-1-[4-(5-chloro-4-methyl-thiazol-2-yl)-cyclohexyl]-5-methyl-5,6-dihydro-4H-2,3,5,10b-tetraaza-benzo[e]azulene] and `Cc1nc([C@H]2CC[C@H](c3nnc4n3-c3ccc(Cl)cc3CN(C)C4)CC2)sc1C` [Example 106, trans-8-Chloro-1-[4-(4,5-dimethyl-thiazol-2-yl)-cyclohexyl]-5-methyl-5,6-dihydro-4H-2,3,5,10b-tetraaza-benzo[e]azulene] are within 1.5-fold of each other in Ki: 1.58 nM for the first, 2.29 nM for the second.

First: Cc1nc([C@H]2CC[C@H](c3nnc4n3-c3ccc(Cl)cc3CN(C(=O)OC(C)(C)C)C4)CC2)sc1C [Example 104, trans-8-Chloro-1-[4-(4,5-dimethyl-thiazol-2-yl)-cyclohexyl]-4H,6H-2,3,5,10b-tetraaza-benzo[e]azulene-5-carboxylic acid tert-butyl ester]
Second: CC(C)(C)OC(=O)N1Cc2cc(Cl)ccc2-n2c(nnc2[C@H]2CC[C@H](c3noc(CO)c3CO)CC2)C1 [Example 108, trans-1-[4-(4,5-Bis-hydroxymethyl-isoxazol-3-yl)-cyclohexyl]-8-chloro-4H,6H-2,3,5,10b-tetraaza-benzo[e]azulene-5-carboxylic acid tert-butyl ester]
The Ki of the first is 16-fold lower: 0.794 nM for the first, 12.6 nM for the second.

First: CN1Cc2cc(Cl)ccc2-n2c(nnc2[C@H]2CC[C@H](c3noc4c3CCC4)CC2)C1 [Example 107, trans-8-Chloro-1-[4-(5,6-dihydro-4H-cyclopenta[d]isoxazol-3-yl)-cyclohexyl]-5-methyl-5,6-dihydro-4H-2,3,5,10b-tetraaza-benzo[e]azulene]
Second: CN1Cc2cc(Cl)ccc2-n2c(nnc2[C@H]2CC[C@H](n3cccn3)CC2)C1 [Example 111, trans-8-Chloro-5-methyl-1-(4-pyrazol-1-yl-cyclohexyl)-5,6-dihydro-4H-2,3,5,10b-tetraaza-benzo[e]azulene]
The Ki of the first is 11-fold lower: 1.58 nM for the first, 17 nM for the second.

Compared with `Clc1ccc2c(c1)CNCc1nnc([C@H]3CC[C@H](n4cccn4)CC3)n1-2` [Example 110, trans-8-Chloro-1-(4-pyrazol-1-yl-cyclohexyl)-5,6-dihydro-4H-2,3,5,10b-tetraaza-benzo[e]azulene], `Clc1ccc2c(c1)CNCc1nnc([C@H]3CC[C@@H](n4cccn4)CC3)n1-2` [Example 113, cis-8-Chloro-1-(4-pyrazol-1-yl-cyclohexyl)-5,6-dihydro-4H-2,3,5,10b-tetraaza-benzo[e]azulene] is 19-fold higher in Ki: 42.7 nM for the first, 794 nM for the second.

Going from `CC(C)(C)OC(=O)N1Cc2cc(Cl)ccc2-n2c(nnc2[C@H]2CC[C@@H](n3cccn3)CC2)C1` [Example 112, cis-8-Chloro-1-(4-pyrazol-1-yl-cyclohexyl)-4H,6H-2,3,5,10b-tetraaza-benzo[e]azulene-5-carboxylic acid tert-butyl ester] to `CN1Cc2cc(Cl)ccc2-n2c(nnc2[C@H]2CC[C@@H](n3cccn3)CC2)C1` [Example 114, cis-8-Chloro-5-methyl-1-(4-pyrazol-1-yl-cyclohexyl)-5,6-dihydro-4H-2,3,5,10b-tetraaza-benzo[e]azulene], the Ki rises from 75.9 nM to 794 nM (10-fold).
